Laboratory results published in PubChem BioAssay AID2060907 (Molecular Pharmacology Branch, DTP, NCI, 2025).

System: 388556-164-R-J1-PDC complex spheroid viability
Experiment: Anticancer human tumor 388556-164-R-J1-PDC patient-derived colon adenocarcinoma cell line growth inhibition [RAS]
Conditions: for IC50: curve of first compound; for viability, T/C: stronger effect = lower value
How it was run: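 Multi-cell-type spheroids: tumor cells plus HUVEC endothelial cells and mesenchymal stem cells. RAS-pathway inhibitors were combined with targeted agents, each dosed in half-log steps down from clinical Cmax, or from 10 microM when Cmax was unknown.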

[1] = second compound 0.000949 µM, first compound 0.0316 µM
[2] = second compound 0.000949 µM, first compound 0.1 µM
[3] = second compound 0.000949 µM, first compound 0.316 µM
[4] = second compound 0.000949 µM, first compound 1 µM
[5] = second compound 0.000949 µM, first compound 3.16 µM
[6] = second compound 0.000949 µM, first compound 10 µM
[7] = second compound 0.003 µM, first compound 0.0316 µM
[8] = second compound 0.003 µM, first compound 0.1 µM
[9] = second compound 0.003 µM, first compound 0.316 µM
[10] = second compound 0.003 µM, first compound 1 µM
[11] = second compound 0.003 µM, first compound 3.16 µM
[12] = second compound 0.003 µM, first compound 10 µM
[13] = second compound 0.00949 µM, first compound 0.0316 µM
[14] = second compound 0.00949 µM, first compound 0.1 µM
[15] = second compound 0.00949 µM, first compound 0.316 µM
[16] = second compound 0.00949 µM, first compound 1 µM
[17] = second compound 0.00949 µM, first compound 3.16 µM
[18] = second compound 0.00949 µM, first compound 10 µM
[19] = second compound 0.03 µM, first compound 0.0316 µM
[20] = second compound 0.03 µM, first compound 0.1 µM
[21] = second compound 0.03 µM, first compound 0.316 µM
[22] = second compound 0.03 µM, first compound 1 µM
[23] = second compound 0.03 µM, first compound 3.16 µM
[24] = second compound 0.03 µM, first compound 10 µM
[25] = second compound 0.0949 µM, first compound 0.0316 µM
[26] = second compound 0.0949 µM, first compound 0.1 µM
[27] = second compound 0.0949 µM, first compound 0.316 µM
[28] = second compound 0.0949 µM, first compound 1 µM
[29] = second compound 0.0949 µM, first compound 3.16 µM
[30] = second compound 0.0949 µM, first compound 10 µM
[31] = second compound 0.3 µM, first compound 0.0316 µM
[32] = second compound 0.3 µM, first compound 0.1 µM
[33] = second compound 0.3 µM, first compound 0.316 µM
[34] = second compound 0.3 µM, first compound 1 µM
[35] = second compound 0.3 µM, first compound 3.16 µM
[36] = second compound 0.3 µM, first compound 10 µM
[37] = second compound 0.000949 µM, first compound 0.00316 µM
[38] = second compound 0.000949 µM, first compound 0.01 µM
[39] = second compound 0.003 µM, first compound 0.00316 µM
[40] = second compound 0.003 µM, first compound 0.01 µM
[41] = second compound 0.00949 µM, first compound 0.00316 µM
[42] = second compound 0.00949 µM, first compound 0.01 µM
[43] = second compound 0.03 µM, first compound 0.00316 µM
[44] = second compound 0.03 µM, first compound 0.01 µM
[45] = second compound 0.0949 µM, first compound 0.00316 µM
[46] = second compound 0.0949 µM, first compound 0.01 µM
[47] = second compound 0.3 µM, first compound 0.00316 µM
[48] = second compound 0.3 µM, first compound 0.01 µM
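Note: spheroids exposed to compound for 7 days before readout.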
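Throughout, for viability, T/C: 100% = DMSO vehicle control luminescence.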

SMILES: CC(C)NCC(C(=O)N1CCN(c2ncnc3c2C(C)CC3O)CC1)c1ccc(Cl)cc1 (stereo not drawn) + CCn1c(-c2cccnc2C(C)OC)c2c3cc(ccc31)N1CCOC(CC(NC(=O)C(C(C)C)N(C)C(=O)C3(F)CCN(C(=O)C#CC(C)(C)N(C)C)CC3)C(=O)N3CCCC(N3)C(=O)OCC(C)(C)C2)C1
- IC50 (second compound 0.000949 µM): > 10 µM
- IC50 (second compound 0.003 µM): > 10 µM
- IC50 (second compound 0.00949 µM): > 10 µM
- IC50 (second compound 0.03 µM): > 10 µM
- IC50 (second compound 0.0949 µM): > 10 µM
- IC50 (second compound 0.3 µM): > 10 µM
- viability, T/C [1]: 104%
- viability, T/C [2]: 98%
- viability, T/C [3]: 99.6%
- viability, T/C [4]: 89.8%
- viability, T/C [5]: 105%
- viability, T/C [6]: 85.4%
- viability, T/C [7]: 105%
- viability, T/C [8]: 104%
- viability, T/C [9]: 102%
- viability, T/C [10]: 99.1%
- viability, T/C [11]: 102%
- viability, T/C [12]: 81.8%
- viability, T/C [13]: 108%
- viability, T/C [14]: 102%
- viability, T/C [15]: 101%
- viability, T/C [16]: 90.7%
- viability, T/C [17]: 107%
- viability, T/C [18]: 91.3%
- viability, T/C [19]: 106%
- viability, T/C [20]: 111%
- viability, T/C [21]: 84.6%
- viability, T/C [22]: 98.4%
- viability, T/C [23]: 106%
- viability, T/C [24]: 81.5%
- viability, T/C [25]: 84.8%
- viability, T/C [26]: 101%
- viability, T/C [27]: 93.8%
- viability, T/C [28]: 99.9%
- viability, T/C [29]: 106%
- viability, T/C [30]: 79.2%
- viability, T/C [31]: 94.5%
- viability, T/C [32]: 102%
- viability, T/C [33]: 86.6%
- viability, T/C [34]: 87.8%
- viability, T/C [35]: 95.5%
- viability, T/C [36]: 72.6%

SMILES: CC(C)n1nc(-c2ccc3oc(N)nc3c2)c2c(N)ncnc21 + CCn1c(-c2cccnc2C(C)OC)c2c3cc(ccc31)N1CCOC(CC(NC(=O)C(C(C)C)N(C)C(=O)C3(F)CCN(C(=O)C#CC(C)(C)N(C)C)CC3)C(=O)N3CCCC(N3)C(=O)OCC(C)(C)C2)C1
- IC50 (second compound 0.000949 µM): 0.0568 µM
- IC50 (second compound 0.003 µM): 0.0577 µM
- IC50 (second compound 0.00949 µM): 0.0484 µM
- IC50 (second compound 0.03 µM): 0.0615 µM
- IC50 (second compound 0.0949 µM): 0.0574 µM
- IC50 (second compound 0.3 µM): 0.0498 µM
- viability, T/C (second compound 0.000949 µM, first compound 0.000316 µM): 95.8%
- viability, T/C (second compound 0.000949 µM, first compound 0.001 µM): 93.2%
- viability, T/C [37]: 88.7%
- viability, T/C [38]: 74.5%
- viability, T/C [1]: 63.6%
- viability, T/C [2]: 38%
- viability, T/C (second compound 0.003 µM, first compound 0.000316 µM): 102%
- viability, T/C (second compound 0.003 µM, first compound 0.001 µM): 90.6%
- viability, T/C [39]: 86.7%
- viability, T/C [40]: 77.6%
- viability, T/C [7]: 64.8%
- viability, T/C [8]: 37.7%
- viability, T/C (second compound 0.00949 µM, first compound 0.000316 µM): 99.3%
- viability, T/C (second compound 0.00949 µM, first compound 0.001 µM): 97.8%
- viability, T/C [41]: 96%
- viability, T/C [42]: 77.3%
- viability, T/C [13]: 60%
- viability, T/C [14]: 34.9%
- viability, T/C (second compound 0.03 µM, first compound 0.000316 µM): 100%
- viability, T/C (second compound 0.03 µM, first compound 0.001 µM): 87.6%
- viability, T/C [43]: 89.1%
- viability, T/C [44]: 82.5%
- viability, T/C [19]: 60.5%
- viability, T/C [20]: 41.3%
- viability, T/C (second compound 0.0949 µM, first compound 0.000316 µM): 93%
- viability, T/C (second compound 0.0949 µM, first compound 0.001 µM): 95.6%
- viability, T/C [45]: 80.2%
- viability, T/C [46]: 78.6%
- viability, T/C [25]: 63.8%
- viability, T/C [26]: 37.9%
- viability, T/C (second compound 0.3 µM, first compound 0.000316 µM): 84.3%
- viability, T/C (second compound 0.3 µM, first compound 0.001 µM): 89.4%
- viability, T/C [47]: 77.2%
- viability, T/C [48]: 72.5%
- viability, T/C [31]: 58.9%
- viability, T/C [32]: 36.8%

SMILES: CC(Nc1ccc2c(c1)OCCn1cc(N3C(=O)OCC3C(F)F)nc1-2)C(N)=O (stereo not drawn) + CCn1c(-c2cccnc2C(C)OC)c2c3cc(ccc31)N1CCOC(CC(NC(=O)C(C(C)C)N(C)C(=O)C3(F)CCN(C(=O)C#CC(C)(C)N(C)C)CC3)C(=O)N3CCCC(N3)C(=O)OCC(C)(C)C2)C1
- IC50 (second compound 0.000949 µM): > 10 µM
- IC50 (second compound 0.003 µM): > 10 µM
- IC50 (second compound 0.00949 µM): 9.58 µM
- IC50 (second compound 0.03 µM): 7.84 µM
- IC50 (second compound 0.0949 µM): > 10 µM
- IC50 (second compound 0.3 µM): 7.83 µM
- viability, T/C [1]: 96.7%
- viability, T/C [2]: 83.7%
- viability, T/C [3]: 73%
- viability, T/C [4]: 79.4%
- viability, T/C [5]: 59.8%
- viability, T/C [6]: 50.9%
- viability, T/C [7]: 102%
- viability, T/C [8]: 82.3%
- viability, T/C [9]: 82.7%
- viability, T/C [10]: 67.4%
- viability, T/C [11]: 66.7%
- viability, T/C [12]: 50.1%
- viability, T/C [13]: 87.1%
- viability, T/C [14]: 89.5%
- viability, T/C [15]: 80.7%
- viability, T/C [16]: 69%
- viability, T/C [17]: 68%
- viability, T/C [18]: 48.1%
- viability, T/C [19]: 92.4%
- viability, T/C [20]: 83.6%
- viability, T/C [21]: 80.7%
- viability, T/C [22]: 69.6%
- viability, T/C [23]: 66.3%
- viability, T/C [24]: 44.4%
- viability, T/C [25]: 95.8%
- viability, T/C [26]: 79.1%
- viability, T/C [27]: 72.3%
- viability, T/C [28]: 71.4%
- viability, T/C [29]: 62.9%
- viability, T/C [30]: 50.8%
- viability, T/C [31]: 76.7%
- viability, T/C [32]: 71%
- viability, T/C [33]: 70.8%
- viability, T/C [34]: 64.9%
- viability, T/C [35]: 61.4%
- viability, T/C [36]: 46.6%

SMILES: O=C(c1ccc(F)c(F)c1Nc1ccc(I)cc1F)N1CC(O)([C@@H]2CCCCN2)C1 + CCn1c(-c2cccnc2C(C)OC)c2c3cc(ccc31)N1CCOC(CC(NC(=O)C(C(C)C)N(C)C(=O)C3(F)CCN(C(=O)C#CC(C)(C)N(C)C)CC3)C(=O)N3CCCC(N3)C(=O)OCC(C)(C)C2)C1
- IC50 (second compound 0.000949 µM): 0.241 µM
- IC50 (second compound 0.003 µM): 0.173 µM
- IC50 (second compound 0.00949 µM): 0.247 µM
- IC50 (second compound 0.03 µM): 0.185 µM
- IC50 (second compound 0.0949 µM): 0.175 µM
- IC50 (second compound 0.3 µM): 0.172 µM
- viability, T/C [37]: 94%
- viability, T/C [38]: 91.1%
- viability, T/C [1]: 81.7%
- viability, T/C [2]: 70.6%
- viability, T/C [3]: 43%
- viability, T/C [4]: 25.2%
- viability, T/C [39]: 104%
- viability, T/C [40]: 97.3%
- viability, T/C [7]: 76.4%
- viability, T/C [8]: 60.8%
- viability, T/C [9]: 39.5%
- viability, T/C [10]: 22.5%
- viability, T/C [41]: 100%
- viability, T/C [42]: 96.8%
- viability, T/C [13]: 77.7%
- viability, T/C [14]: 64.8%
- viability, T/C [15]: 47.6%
- viability, T/C [16]: 22.6%
- viability, T/C [43]: 115%
- viability, T/C [44]: 98.1%
- viability, T/C [19]: 89.9%
- viability, T/C [20]: 62.5%
- viability, T/C [21]: 37.6%
- viability, T/C [22]: 22.3%
- viability, T/C [45]: 102%
- viability, T/C [46]: 97.5%
- viability, T/C [25]: 84.8%
- viability, T/C [26]: 57.8%
- viability, T/C [27]: 41.5%
- viability, T/C [28]: 23.3%
- viability, T/C [47]: 81.5%
- viability, T/C [48]: 81.8%
- viability, T/C [31]: 72.8%
- viability, T/C [32]: 59.1%
- viability, T/C [33]: 39.7%
- viability, T/C [34]: 20.2%
